Laboratory results taken from US10869844B2, “Methods for the treatment of depression” (Janssen Pharmaceutica NV, priority 2014, dated 2020).
Like-named read-outs stand apart in the source and are kept apart here.

Columns and labels:
adult subjects with TRD [1] = tested on: adult subjects with TRD
adult subjects with TRD [2] = assay type: in vivo, human; details: for Non-responders % / Non-responders N / Responders % (MADRS total score reduction >50% TRD2001, ≥50% TRD2002) / Responders N (MADRS total score reduction >50% TRD2001, ≥50% TRD2002): after first infusion (Day 2 TRD2001, Day 3 or 4 TRD2002)
Description: (§1) Association between changes in MADRS total score from baseline and the SNP rs6265 after a single dose was evaluated in placebo subjects and active subjects using an ANCOVA model under a dominant model with baseline MADRS total score, and grouped genotype (Val/Val or Met carrier). A statistically significant result was found in active subjects (p=0.02).
as §1, with “the % responders” for “changes in MADRS total score from baseline”, “a logistic regression” for “an ANCOVA”, “score” for “score,”, “(p=0.03).” for “(p=0.02).”
Association between the % remitters and the SNP rs6265 after a single dose was evaluated in placebo subjects and as well as in active subjects using a logistic regression model under a dominant model with baseline MADRS total score and grouped genotype (Val/Val or Met carrier).

[3] = Val/Val, DAY 02, randomized to esketamine Day 1
[4] = Val/Val, DAY 07, randomized to esketamine Day 1
[5] = Val/Val, DAY 07, randomized to placebo Day 1, esketamine from day 4 onward
[6] = Val/Val, DAY 17, randomized to esketamine Day 1
[7] = Val/Val, DAY 17, randomized to placebo Day 1, esketamine from day 4 onward
[8] = Val/Val, DAY 35, randomized to esketamine Day 1
[9] = Val/Val, DAY 35, randomized to placebo Day 1, esketamine from day 4 onward
[10] = Val/Val, Day 0 after Day 17, all responders (Day 17)
[11] = Val/Val, Day 0 after Day 17, esketamine responders (Day 17) per Day 1 randomization
[12] = Val/Val, Day 11 after Day 17, all responders (Day 17)
[13] = esketamine subjects, Days 2, 7, 17 and 35

Q: How did the “Non-responders No.” value (adult subjects with TRD [1]; [3]) turn out when `CN[C@]1(c2ccccc2Cl)CCCCC1=O.Cl` [Esketamine, (S)-2-(2-chlorophenyl)-2-(methylamino)cyclohexanone hydrochloride] was run?
A: The value was 2.

Q: What about the “Remitters % (MADRS total score 10)” value (adult subjects with TRD [1]; [3]) of the same molecule?
A: The value was 62.5%.

Q: And the “Remitters No. (MADRS total score 10)” value (adult subjects with TRD [1]; [3])?
A: The value was 5.

Q: What about the “Responders % (MADRS total score reduction >50%)” value (adult subjects with TRD [1]; [3]) of the same molecule?
A: Its value is 75.0%.

Q: And the “Responders No. (MADRS total score reduction >50%)” value (adult subjects with TRD [1]; [3])?
A: Its value is 6.

Q: And the Non-remitters % (adult subjects with TRD [1]; [4])?
A: The Non-remitters % was 25.0%.

Q: What about the “Non-remitters No.” value (adult subjects with TRD [1]; [4]) of the same molecule?
A: Its value is 2.

Q: And the Non-responders % (adult subjects with TRD [1]; [4])?
A: The Non-responders % was 25.0%.

Q: What about the “Non-responders No.” value (adult subjects with TRD [1]; [4]) of the same molecule?
A: The value was 2.

Q: What about the “Remitters % (MADRS total score 10)” value (adult subjects with TRD [1]; [4]) of the same molecule?
A: Its value is 75.0%.

Q: What about the “Remitters No. (MADRS total score 10)” value (adult subjects with TRD [1]; [4]) of the same molecule?
A: The value was 6.

Q: And the “Responders % (MADRS total score reduction >50%)” value (adult subjects with TRD [1]; [4])?
A: Its value is 75.0%.

Q: And the “Responders No. (MADRS total score reduction >50%)” value (adult subjects with TRD [1]; [4])?
A: Its value is 6.

Q: And the Non-remitters % (adult subjects with TRD [1]; [5])?
A: The Non-remitters % was 42.9%.

Q: And the “Non-remitters No.” value (adult subjects with TRD [1]; [5])?
A: The value was 3.

Q: And the Non-responders % (adult subjects with TRD [1]; [5])?
A: Its Non-responders % is 28.6%.

Q: What about the “Non-responders No.” value (adult subjects with TRD [1]; [5]) of the same molecule?
A: Its value is 2.

Q: And the “Remitters % (MADRS total score 10)” value (adult subjects with TRD [1]; [5])?
A: The value was 57.1%.

Q: And the “Remitters No. (MADRS total score 10)” value (adult subjects with TRD [1]; [5])?
A: The value was 4.

Q: What about the “Responders % (MADRS total score reduction >50%)” value (adult subjects with TRD [1]; [5]) of the same molecule?
A: The value was 71.4%.

Q: And the “Responders No. (MADRS total score reduction >50%)” value (adult subjects with TRD [1]; [5])?
A: The value was 5.

Q: What about the Non-remitters % (adult subjects with TRD [1]; [6]) of the same molecule?
A: Its Non-remitters % is 12.5%.

Q: And the “Non-remitters No.” value (adult subjects with TRD [1]; [6])?
A: The value was 1.

Q: What about the Non-responders % (adult subjects with TRD [1]; [6]) of the same molecule?
A: The Non-responders % was 12.5%.

Q: What about the “Non-responders No.” value (adult subjects with TRD [1]; [6]) of the same molecule?
A: The value was 1.

Q: What about the “Remitters % (MADRS total score 10)” value (adult subjects with TRD [1]; [6]) of the same molecule?
A: Its value is 87.5%.

Q: And the “Remitters No. (MADRS total score 10)” value (adult subjects with TRD [1]; [6])?
A: Its value is 7.

Q: And the “Responders % (MADRS total score reduction >50%)” value (adult subjects with TRD [1]; [6])?
A: The value was 87.5%.

Q: What about the “Responders No. (MADRS total score reduction >50%)” value (adult subjects with TRD [1]; [6]) of the same molecule?
A: Its value is 7.

Q: And the Non-remitters % (adult subjects with TRD [1]; [7])?
A: Its Non-remitters % is 57.1%.

Q: And the “Non-remitters No.” value (adult subjects with TRD [1]; [7])?
A: Its value is 4.

Q: What about the Non-responders % (adult subjects with TRD [1]; [7]) of the same molecule?
A: The Non-responders % was 28.6%.

Q: What about the “Non-responders No.” value (adult subjects with TRD [1]; [7]) of the same molecule?
A: Its value is 2.

Q: And the “Remitters % (MADRS total score 10)” value (adult subjects with TRD [1]; [7])?
A: Its value is 42.9%.

Q: What about the “Remitters No. (MADRS total score 10)” value (adult subjects with TRD [1]; [7]) of the same molecule?
A: Its value is 3.

Q: What about the “Responders % (MADRS total score reduction >50%)” value (adult subjects with TRD [1]; [7]) of the same molecule?
A: The value was 71.4%.

Q: And the “Responders No. (MADRS total score reduction >50%)” value (adult subjects with TRD [1]; [7])?
A: The value was 5.

Q: What about the Non-remitters % (adult subjects with TRD [1]; [8]) of the same molecule?
A: The Non-remitters % was 12.5%.

Q: What about the “Non-remitters No.” value (adult subjects with TRD [1]; [8]) of the same molecule?
A: Its value is 1.

Q: And the Non-responders % (adult subjects with TRD [1]; [8])?
A: The Non-responders % was 12.5%.

Q: What about the “Non-responders No.” value (adult subjects with TRD [1]; [8]) of the same molecule?
A: The value was 1.

Q: What about the “Remitters % (MADRS total score 10)” value (adult subjects with TRD [1]; [8]) of the same molecule?
A: The value was 87.5%.

Q: What about the “Remitters No. (MADRS total score 10)” value (adult subjects with TRD [1]; [8]) of the same molecule?
A: Its value is 7.

Q: What about the “Responders % (MADRS total score reduction >50%)” value (adult subjects with TRD [1]; [8]) of the same molecule?
A: The value was 87.5%.

Q: What about the “Responders No. (MADRS total score reduction >50%)” value (adult subjects with TRD [1]; [8]) of the same molecule?
A: The value was 7.

Q: What about the Non-remitters % (adult subjects with TRD [1]; [9]) of the same molecule?
A: The Non-remitters % was 42.9%.

Q: What about the “Non-remitters No.” value (adult subjects with TRD [1]; [9]) of the same molecule?
A: Its value is 3.

Q: And the Non-responders % (adult subjects with TRD [1]; [9])?
A: The Non-responders % was 42.9%.

Q: What about the “Non-responders No.” value (adult subjects with TRD [1]; [9]) of the same molecule?
A: The value was 3.

Q: What about the “Remitters % (MADRS total score 10)” value (adult subjects with TRD [1]; [9]) of the same molecule?
A: Its value is 57.1%.

Q: What about the “Remitters No. (MADRS total score 10)” value (adult subjects with TRD [1]; [9]) of the same molecule?
A: Its value is 4.

Q: And the “Responders % (MADRS total score reduction >50%)” value (adult subjects with TRD [1]; [9])?
A: The value was 57.1%.

Q: And the “Responders No. (MADRS total score reduction >50%)” value (adult subjects with TRD [1]; [9])?
A: The value was 4.

Q: And the “Duration of response, survival function estimate: Failure” value (“Duration of response … Failure” for short) (adult subjects with TRD [1]; [10])?
A: Its value is 0.

Q: What about the “Duration of response, survival function estimate: Survival” value (adult subjects with TRD [1]; [10]) of the same molecule?
A: The value was 1.0000.

Q: What about the “Duration of response … Failure” value (adult subjects with TRD [1]; [11]) of the same molecule?
A: The value was 0.

Q: What about the “Duration of response, survival function estimate: Survival” value (adult subjects with TRD [1]; [11]) of the same molecule?
A: Its value is 1.0000.

Q: What about the “Duration of response … Failure” value (adult subjects with TRD [1]; [12]) of the same molecule?
A: The value was 0.0833.

Q: What about the “Duration of response, survival function estimate: Survival” value (adult subjects with TRD [1]; [12]) of the same molecule?
A: Its value is 0.9167.

Q: What about the “Subjects who remain well, number” value (adult subjects with TRD [1]; Val/Val, by Day 35, of 7) of the same molecule?
A: The value was 7.

Q: And the “Responders on Day 17, number” value (adult subjects with TRD [1]; all esketamine subjects per Day 1 randomization (Val/Val and Met carriers))?
A: Its value is 13.

Q: What about the “Remit rates, Val/Val vs Met carriers” value (adult subjects with TRD [1]; [13]) of the same molecule?
A: The value was “remit rates were higher in Val/Val subjects than in Met carriers at all timepoints”.

Q: And the “Response rates, Val/Val vs Met carriers” value (adult subjects with TRD [1]; [13])?
A: The value was “response rates were higher in Val/Val subjects than in Met carriers”.

Q: And the Non-responders % (adult subjects with TRD [2]; Met carriers)?
A: The Non-responders % was 88.9%.

Q: And the “Non-responders N” value (adult subjects with TRD [2]; Met carriers)?
A: Its value is 8.

Q: What about the “Responders % (MADRS total score reduction >50% TRD2001, ≥50% TRD2002)” value (adult subjects with TRD [2]; Met carriers) of the same molecule?
A: The value was 11.1%.

Q: What about the “Responders N (MADRS total score reduction >50% TRD2001, ≥50% TRD2002)” value (adult subjects with TRD [2]; Met carriers) of the same molecule?
A: Its value is 1.

Q: What about the Non-responders % (adult subjects with TRD [2]; Val/Val) of the same molecule?
A: The Non-responders % was 25.0%.

Q: And the “Non-responders N” value (adult subjects with TRD [2]; Val/Val)?
A: The value was 2.

Q: And the “Responders % (MADRS total score reduction >50% TRD2001, ≥50% TRD2002)” value (adult subjects with TRD [2]; Val/Val)?
A: The value was 75.0%.

Q: What about the “Responders N (MADRS total score reduction >50% TRD2001, ≥50% TRD2002)” value (adult subjects with TRD [2]; Val/Val) of the same molecule?
A: Its value is 6.

Q: What about the “Clinical response associated with Met allele of Val66Met rs6265” value (adult subjects with TRD [2]; acute, single dose administration) of the same molecule?
A: The value was “smaller clinical response”.
